Article PMC6155332, “Antimalarials with Benzothiophene Moieties as Aminoquinoline Partners” (Molecules : A Journal of Synthetic Chemistry and Natural …, 2017)
Several values for one entry are separate records, joined by “and”; a condition that tells them apart may be missing. Equal entries are not always repeated. Where two headings read alike, the source gives them in different places.

Legend:
[1] = test system: P. falciparum D6 (CQ susceptible (CQS) strain); set-up: method as in PMID 26640981, PMID 25801154; settings: previously reported compounds; ref [27],[28]; cited from earlier work
[2] = test system: P. falciparum W2 (CQ resistant (CQR) strain); test: microbe, parasite or virus in culture; type: cell-based, Plasmodium falciparum; settings: for RI W2/D6 (resistance index): IC50 W2 / IC50 D6; for IC50: Plasmodium falciparum, W2, read-out: In Vitro Antimalarial Activity (P. falciparum, IC50, nM) W2
P. berghei (ANKA) = test: Modified Thompson test, P. berghei mouse efficacy; type: in vivo, Plasmodium berghei; settings: for Parasitemia D25: day 25; for Parasitemia D18: day 18; for Parasitemia D21: day 21; for Mean Survival Time (MST, Days) / Mice Alive on Day 31 / Mice Dead/Day Died: infected mice; for Parasitemia D28: day 28; for Parasitemia D11: day 11; for Parasitemia D31: day 31 (end of study)
Experimental: In a separate host toxicity study, benzothiophene 25 was subjected to in vivo toxicity evaluation. […]
The P. berghei (ANKA) mouse efficacy tests were conducted using a modified version of the Thompson test. Groups of five mice were inoculated intraperitoneally with erythrocytes infected with P. berghei on day 0. Drugs were suspended in 0.5% hydroxyethylcellulose-0.1% Tween 80 and administered orally once a day beginning on day 3 post infection. […] Cure was defined as survival (with no parasitemia) until day 31 post-treatment. Parasitemia was determined by thin-blood Giemsa-stained smears prepared from mice tail blood of each animal on days 0, 3, 6, 10, 13, 17, 20, 24, 27, and 31 (postinfection). The slides were examined under a light microscope.

[3] = test system: P. falciparum D6 (CQ susceptible (CQS) strain); test: Malaria SYBR Green Fluorescence Assay, D6 strain; type: cell-based; settings: Plasmodium falciparum; CQ susceptible African D6 clone; read-out: In Vitro Antimalarial Activity (P. falciparum, IC50, nM) D6
[4] = test system: P. falciparum TM91C235 (Thailand, multidrug-resistant (MDR) strain); test: Malaria SYBR Green Fluorescence Assay, TM91C235 strain; type: cell-based; settings: Plasmodium falciparum, read-out: In Vitro Antimalarial Activity (P. falciparum, IC50, nM) C235
healthy mice = test: Host toxicity study in healthy mice; type: in vivo; settings: 160 mg/kg/day × 3 days; for Mice survived in host toxicity study: groups of 5 healthy mice; for Host toxicity (toxic / non-toxic): healthy mice, orally
Experimental: In a separate host toxicity study, groups of five healthy mice were administered 160 mg/kg/day × 3 days of the investigational compounds and individually monitored for behavior and appearance two times a day for 31 days. No toxicity was defined as survival past day 31 with no overt clinical manifestations of toxicity (changes in behavior and appearance).

[5] = test system: HepG2 (hepatocellular carcinoma) cell line; test: Compound toxicity in HepG2 cell line; type: cell-based, human; settings: for IC50: Homo sapiens, HepG2, hepatocellular carcinoma cells; for SI HepG2/D6 (selectivity index): IC50 HepG2 / IC50 D6
Experimental: To investigate possible toxicity issues, the synthesized compounds were evaluated in vitro against a human hepatoma cell line (HepG2).
Synthesized aminoquinolines were screened in vitro against P. falciparum strains: CQ and MFQ susceptible strain D6 (clone of Sierra Leone/UNC isolate), CQ resistant but MFQ susceptible strain W2 (clone of Indochina isolate), and CQ and MFQ resistant strain TM91C235 (clone of South East Asian isolate) using the Malaria SYBR Green Fluorescence Assay. Full method details are given in Supplementary Materials I. Assessment of compound toxicity in a HepG2 (hepatocellular carcinoma) cell line followed the protocol described in Ref. [40].

P. berghei DNA = test: qPCR of blood and liver of treated mice for Plasmodium 18S rRNA gene; type: in vivo, Plasmodium berghei; settings: mice treated 160 mg/kg/day × 3 days, alive past day 31
Source text: Briefly, genomic DNA was extracted from the blood and liver of experimental animals using the DNeasy blood and tissue kit (Qiagen, Hilden, Germany) according to the manufacturer’s instructions. The primers and corresponding TaqMan (Applied BioSystems. Foster City, CA, USA) probe amplify and detect a highly conserved region of the 18S rRNA gene of the genus Plasmodium. Pure P. berghei gDNA samples were used as positive controls.
Genomic DNA was extracted from the blood and liver of experimental animals using the DNeasy blood and tissue kit (Qiagen, Hilden, Germany) according to the manufacturer’s instructions. Briefly, mice alive past day 31 with complete parasite clearance were sacrificed. Next, between 300 and 500 μL of blood was removed after heart puncture and the organs were removed, rinsed with dPBS and homogenized. The liver was homogenized using mechanical disruption and then subjected to proteinase K digestion. Approximately 100 μL of sample was used per each spin column for gDNA extraction.
Briefly, the primers and corresponding TaqMan probe amplify and detect a highly conserved region of the 18S rRNA gene of the genus Plasmodium. The primer and probe sequences were as follows: forward primer Plasmo 1: 5-[…] TCAGA-3; reverse primer Plasmo 2: 5-[…] TCATAA-3; TaqMan probe Plasprobe: 5-FAM-[…] GACTAG-TAMRA-3. […]

β-hematin formation = test: Inhibition of β-hematin formation (BHIA assay); type: biochemical; settings: molar equivalent of compound, relative to hemin, that inhibits β-hematin formation by 50%
Source text: [33] The inhibition of β-hematin formation is expressed as the molar equivalent of compound, relative to hemin, that inhibits β-hematin formation by 50% and determined by slightly modified BHIA assay introduced by ParapiniS.BasilicoN.PasiniE.EganT.J.OlliaroP.TaramelliD.MontiD.Standardization of the physicochemical parameters to assess in vitro the beta-hematin inhibitory activity of antimalarial drugsExp. Parasitol.200096249256

[6] = test system: P. falciparum W2 (CQ resistant (CQR) strain); set-up: method as in PMID 26640981; settings: previously reported compounds; ref [27]; cited from earlier work
[7] = test system: HepG2 (hepatocellular carcinoma) cell line; set-up: method as in PMID 26640981; settings: previously reported compounds; ref [27]; cited from earlier work
[8] = 40 mg/kg/day p.o., days 3–6 postinfection
[9] = 40 mg/kg/day p.o., days 3–6 postinfection, 40 mg/kg/day
[10] = 80 mg/kg/day p.o., days 3–6 postinfection
[11] = 80 mg/kg/day p.o., days 3–6 postinfection, 80 mg/kg/day
[12] = 20 mg/kg/day p.o., days 3–6 postinfection
[13] = 160 mg/kg/day p.o., days 3–5 postinfection
[14] = 160 mg/kg/day p.o., days 3–5 postinfection, 160 mg/kg/day

## Fc1ccc2scc(CNCCCCNc3ccnc4cc(Cl)ccc34)c2c1 [Compound 2]
[1]
  IC50: 10 nM

## COc1ccc(-c2ccc(CNCCCNc3ccnc4cc(Cl)ccc34)s2)cc1 [Compound 5]
[1]
  IC50: 7 nM

## CN(CCCCCCCCNc1ccnc2ccccc12)Cc1ccc(-c2ccc(-c3ccc(C#N)cc3)s2)cc1 [Compound 46]
[2]
  RI W2/D6 (resistance index): 0.7
  IC50: 5 nM
P. berghei (ANKA); 40 mg/kg/day p.o. days 3–6
  Parasitemia D25: 43%
P. berghei (ANKA); 80 mg/kg/day p.o. days 3–6, day 14
  Parasitemia D14: 4.7%
P. berghei (ANKA); 80 mg/kg/day p.o. days 3–6
  Parasitemia D18: 12%
  Parasitemia D21: 35%
  Parasitemia D25: 41%
P. berghei (ANKA); 80 and 40 mg/kg/day × 4 days (both doses)
  One mouse survival until day: 25 days
P. berghei (ANKA); [8]
  Mean Survival Time (MST, Days): 15.8 days
  Mice Alive on Day 31: 0/5
P. berghei (ANKA); [9]
  Mice Dead/Day Died: 1/10 and 2/11 and 1/22 and 1/25
P. berghei (ANKA); [10]
  Mean Survival Time (MST, Days): 14.4 days
  Mice Alive on Day 31: 0/5
P. berghei (ANKA); [11]
  Mice Dead/Day Died: 1/7 and 1/12 and 1/13 and 1/14 and 1/26
[3]
  IC50: 7 nM
[4]
  IC50: 13 nM
Healthy mice
  Mice survived in host toxicity study: 5
  Host toxicity (toxic / non-toxic): non-toxic
[5]
  IC50: 2570 nM
  SI HepG2/D6 (selectivity index): 367

## Clc1ccc2c(NCCCCNCc3csc4ccccc34)ccnc2c1 [Compound 1]
[1]
  IC50: 8 nM
P. berghei (ANKA); 20 mg/kg/day p.o. days 3–6
  Parasitemia D18: 6%
  Parasitemia D21: 27%
  Parasitemia D25: 63%
  Parasitemia D28: 66%
P. berghei (ANKA); 20 mg/kg/day
  Cure (4 days therapy): no cure
P. berghei (ANKA); 40 mg/kg/day p.o. days 3–6, day 7, positive mice
  Parasitemia D7: 5 mice negative
P. berghei (ANKA); 40 mg/kg/day p.o. days 3–6
  Parasitemia D11: no detectable parasitemia and 5 mice negative
  Parasitemia D18: 2.2%
  Parasitemia D21: 7.3%
  Parasitemia D25: 37%
  Parasitemia D28: 53%
P. berghei (ANKA); 80 mg/kg/day p.o. days 3–6, day 7, positive mice
  Parasitemia D7: 4 mice negative
P. berghei (ANKA); 80 mg/kg/day p.o. days 3–6
  Parasitemia D11: 4 mice negative
  Parasitemia D18: 2.3%
P. berghei (ANKA); 160 mg/kg/day p.o. days 3–5, day 7
  Parasitemia D7: cleared all parasites
P. berghei (ANKA); 160 mg/kg/day p.o. days 3–5
  Parasitemia D31: parasite negative
P. berghei (ANKA); 160 mg/kg/day p.o. days 3–5, days 7–31
  Parasitemia D7–D31: 5 mice negative
P. berghei (ANKA); 80, 40 and 20 mg/kg/day p.o. for 4 days, starting day 3 postinfection
  Parasite clearance in dose response test: did not clear the parasites
P. berghei (ANKA); 80 and 40 mg/kg/day, clearance with recrudescence on D11-14
  Cure (4 days therapy): no cure
P. berghei (ANKA); P. berghei infected mice, 160 mg/kg/day × 3 days p.o.
  Mice cured (modified Thompson test, 3 days therapy): 5/5
P. berghei (ANKA); [12]
  Mean Survival Time (MST, Days): 16.8 days
  Mice Alive on Day 31: 0/5
P. berghei (ANKA); 20 mg/kg/day p.o., days 3–6 postinfection, 20 mg/kg/day
  Mice Dead/Day Died: 2/11 and 1/14 and 1/18 and 1/30
P. berghei (ANKA); [8]
  Mean Survival Time (MST, Days): 19.4 days
  Mice Alive on Day 31: 0/5
P. berghei (ANKA); [9]
  Mice Dead/Day Died: 1/30 and 1/15 and 1/16 and 2/18
P. berghei (ANKA); [10]
  Mean Survival Time (MST, Days): 18.2 days
  Mice Alive on Day 31: 0/4
P. berghei (ANKA); [11]
  Mice Dead/Day Died: 3/18 and 1/19
P. berghei (ANKA); [13]
  Mean Survival Time (MST, Days): >31 days
  Mice Alive on Day 31: 5/5
P. berghei DNA
  P. berghei DNA in blood and tissue samples (qPCR): negative
β-hematin formation
  IC50 of inhibition of β-hematin formation: 0.34 molar equivalent
Healthy mice
  Mice survived in host toxicity study: 5/5
[6]
  IC50: 31 nM
[7]
  SI(HepG2/D6): 282

## Clc1ccc2c(NCCCNCc3csc4ccccc34)ccnc2c1 [Compound 53]
[1]
  IC50: 7 nM
Healthy mice
  Host toxicity (toxic / non-toxic): toxic
[6]
  IC50: 24 nM
[7]
  SI(HepG2/D6): 1111

## CC(CCCNCc1ccc(-c2csc3ccc(F)cc23)cc1)Nc1ccnc2cc(Cl)ccc12 (stereo not drawn) [Compound 25]
[2]
  RI W2/D6 (resistance index): 0.2
  IC50: 12 nM
P. berghei (ANKA); 160 mg/kg/day p.o. days 3–5
  Parasitemia D21: 2.7%
  Parasitemia D28: 72%
  Parasitemia D31: 79%
P. berghei (ANKA); 160 mg/kg/day p.o. days 3–5, day 24
  Parasitemia D24: 52%
P. berghei (ANKA); [13]
  Mean Survival Time (MST, Days): 20.8 days
P. berghei (ANKA); [14]
  Mice Alive on Day 31: only one surviving 31 days but with parasitemia and 1/4
  Mice Dead/Day Died: 2/17 and 1/18
[3]
  IC50: 71 nM
[4]
  IC50: 121 nM
Healthy mice
  Mice survived in host toxicity study: 5
  Host toxicity (toxic / non-toxic): non-toxic
[5]
  IC50: 2090 nM
  SI HepG2/D6 (selectivity index): 29

## N#Cc1ccc2scc(CNCCCNc3ccnc4cc(Cl)ccc34)c2c1 [Compound 3]
[1]
  IC50: 5 nM

## N#Cc1ccc(-c2ccc(CNCCCNc3ccnc4cc(Cl)ccc34)s2)cc1 [Compound 4]
[1]
  IC50: 2 nM

## Cc1ccc(-c2ccc(CNCCNc3ccnc4cc(Cl)ccc34)s2)cc1 [Compound 6]
[1]
  IC50: 5 nM
